Measured values reported in the supplement of paper PMC11451515.

System: P12-Ichikawa
Test: cell viability relative to DMSO control; higher = less cytotoxic
Conditions: 48 h
In short: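 NOMO1 or SEM cells were plated at 500 cells/well and P12-Ichikawa cells at 1000 cells/well in 1536-well plates (5 μl), after each leukemia line had been adapted for at least four passages in each medium. Pin dosing delivered library compounds in DMSO at 11 threefold concentrations, 47 μM to 0.79 nM. CellTiter-Glo One luminescence was read after 48 h at 37°C. Viability is reported as a per-plate percentage of DMSO wells, with cell-free wells as background.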

[1] = HPLM + 10% dialyzed FBS, 0.000781 µM
[2] = HPLM + 10% dialyzed FBS, 0.00234 µM
[3] = HPLM + 10% dialyzed FBS, 0.00702 µM
[4] = HPLM + 10% dialyzed FBS, 0.0211 µM
[5] = HPLM + 10% dialyzed FBS, 0.0632 µM
[6] = HPLM + 10% dialyzed FBS, 0.19 µM
[7] = HPLM + 10% dialyzed FBS, 0.569 µM
[8] = HPLM + 10% dialyzed FBS, 1.71 µM
[9] = HPLM + 10% dialyzed FBS, 5.12 µM
[10] = HPLM + 10% dialyzed FBS, 15.4 µM
[11] = HPLM + 10% dialyzed FBS, 46.1 µM
[12] = RPMI 5 mM glucose + 10% FBS, 0.000781 µM
[13] = RPMI 5 mM glucose + 10% FBS, 0.00234 µM
[14] = RPMI 5 mM glucose + 10% FBS, 0.00702 µM
[15] = RPMI 5 mM glucose + 10% FBS, 0.0211 µM
[16] = RPMI 5 mM glucose + 10% FBS, 0.0632 µM
[17] = RPMI 5 mM glucose + 10% FBS, 0.19 µM
[18] = RPMI 5 mM glucose + 10% FBS, 0.569 µM
[19] = RPMI 5 mM glucose + 10% FBS, 1.71 µM
[20] = RPMI 5 mM glucose + 10% FBS, 5.12 µM
[21] = RPMI 5 mM glucose + 10% FBS, 15.4 µM
[22] = RPMI 5 mM glucose + 10% FBS, 46.1 µM
[23] = RPMI 5 mM glucose + 10% dialyzed FBS, 0.000781 µM
[24] = RPMI 5 mM glucose + 10% dialyzed FBS, 0.00234 µM
[25] = RPMI 5 mM glucose + 10% dialyzed FBS, 0.00702 µM
[26] = RPMI 5 mM glucose + 10% dialyzed FBS, 0.0211 µM
[27] = RPMI 5 mM glucose + 10% dialyzed FBS, 0.0632 µM
[28] = RPMI 5 mM glucose + 10% dialyzed FBS, 0.19 µM
[29] = RPMI 5 mM glucose + 10% dialyzed FBS, 0.569 µM
[30] = RPMI 5 mM glucose + 10% dialyzed FBS, 1.71 µM
[31] = RPMI 5 mM glucose + 10% dialyzed FBS, 5.12 µM
[32] = RPMI 5 mM glucose + 10% dialyzed FBS, 15.4 µM
[33] = RPMI 5 mM glucose + 10% dialyzed FBS, 46.1 µM

| SMILES | cell viability [1] [%] | cell viability [2] [%] | cell viability [3] [%] | cell viability [4] [%] | cell viability [5] [%] | cell viability [6] [%] | cell viability [7] [%] | cell viability [8] [%] | cell viability [9] [%] | cell viability [10] [%] | cell viability [11] [%] | cell viability [12] [%] | cell viability [13] [%] | cell viability [14] [%] | cell viability [15] [%] | cell viability [16] [%] | cell viability [17] [%] | cell viability [18] [%] | cell viability [19] [%] | cell viability [20] [%] | cell viability [21] [%] | cell viability [22] [%] | cell viability [23] [%] | cell viability [24] [%] | cell viability [25] [%] | cell viability [26] [%] | cell viability [27] [%] | cell viability [28] [%] | cell viability [29] [%] | cell viability [30] [%] | cell viability [31] [%] | cell viability [32] [%] | cell viability [33] [%] |
| --- | --- | --- | --- | --- | --- | --- | --- | --- | --- | --- | --- | --- | --- | --- | --- | --- | --- | --- | --- | --- | --- | --- | --- | --- | --- | --- | --- | --- | --- | --- | --- | --- | --- |
| Cc1cc(O)c2c3c4c(cc(O)c13)C(C)(C)C(=O)c1c(O)cc(O)c(c1-4)C2=O | 104 | 108 | 111 | 107 | 111 | 106 | 113 | 107 | 106 | 105 | 39 | 107 | 106 | 109 | 99.8 | 114 | 107 | 115 | 109 | 110 | 97.2 | 42.2 | 103 | 112 | 117 | 109 | 107 | 101 | 111 | 104 | 105 | 93.2 | 35.2 |
| O=C/1\C=C(/OC(=C1)/C2=C3SC4=C(SC3=CC=C2)C=CC=C4)N5CCOCC5 | 81.4 | 100 | 98.5 | 10.6 | 100 | 103 | 102 | 98.1 | 95.2 | 94.4 | 95 | 84.7 | 92.7 | 96.9 | 11.2 | 103 | 100 | 106 | 104 | 93.1 | 102 | 102 | 83.4 | 94.4 | 97.2 | 23.7 | 95.7 | 84.4 | 99.2 | 99.4 | 96 | 95.7 | 90.8 |
| COc1cc(N2CCC(O)CC2)ccc1Nc1cc(Nc2ccccc2[S+](=O)([O-])C(C)C)c2cc[nH]c2n1 | 91.6 | 88.2 | 86 | 91.3 | 93 | 85.3 | 78.4 | 85.1 | 84.4 | 84.4 | 80.2 | 78.4 | 85.5 | 85.2 | 85.4 | 87.2 | 88 | 81.3 | 81.8 | 80.8 | 77.4 | 66.9 | 85 | 85.2 | 86.5 | 83.7 | 87.1 | 80.7 | 85 | 83.7 | 85.6 | 78.4 | 77.9 |
| O=C1NC(=O)[C@@H](c2cn3c4c(cccc24)CCC3)[C@@H]1c1c[nH]c2ccccc12 | 99 | 96.4 | 103 | 98.7 | 105 | 103 | 93.8 | 56 | 23.3 | 20.7 | 18.5 | 93.1 | 111 | 102 | 107 | 107 | 102 | 90.9 | 48.4 | 11.9 | 17.9 | 14.3 | 105 | 105 | 99.9 | 111 | 117 | 113 | 109 | 78 | 34.6 | 30 | 33.1 |
| COc1cc2c(N3CCN(C(=O)Nc4ccc(OC(C)C)cc4)CC3)ncnc2cc1OCCCN1CCCCC1 | 88.6 | 92.6 | 87.4 | 97.5 | 91.3 | 91.6 | 92.3 | 90 | 86 | 58 | 43.4 | 84.3 | 74.1 | 80 | 92.5 | 86.3 | 72.8 | 78.9 | 80.1 | 77.4 | 42.9 | 48.1 | 79.5 | 86.9 | 84.7 | 83 | 81.1 | 82.2 | 83.6 | 79 | 84.6 | 38.1 | 56 |
| ClC1=CC=C(CCCOC/2=N/NC(=O)C(=C2NCC3=CN=CC=C3)/Br)C=C1 | 115 | 115 | 113 | 117 | 118 | 110 | 104 | 95.5 | 61.6 | 35.7 | 14.4 | 109 | 114 | 110 | 122 | 125 | 124 | 113 | 112 | 96.3 | 69.6 | 38.5 | 113 | 115 | 116 | 110 | 110 | 115 | 106 | 90.4 | 56.7 | 26.9 | 13.7 |
| CC(C)OC(=O)CCC/C=C\C[C@@H]1[C@@H](/C=C/[C@@H](O)COc2cccc(C(F)(F)F)c2)[C@H](O)C[C@@H]1O | 109 | 120 | 122 | 127 | 115 | 119 | 118 | 115 | 112 | 104 | 65.1 |  |  |  |  |  |  |  |  |  |  |  | 112 | 126 | 120 | 121 | 127 | 123 | 124 | 119 | 110 | 92.7 | 46.1 |
